Earlier results in patent publication US20140045806A1 (priority 2012, published 2014).

System: vaginal nerve fibers
Conditions: Pessina, Hoyt et al. 2006; cited from earlier work

| Compound | Number and size of the nerve terminals in the lamina propria |
| --- | --- |
| CC(=O)[C@H]1CC[C@H]2[C@@H]3CCC4=CC(=O)CC[C@]4(C)[C@H]3CC[C@]12C [progesterone] | no effect |
| C[C@]12CC[C@H]3[C@@H](CCC4=CC(=O)CC[C@@]43C)[C@@H]1CC[C@@H]2O [testosterone] | increases the number and size of the nerve terminals |
